Test results as given in patent US10603279B2, “Compositions of lopinavir” (The University of Liverpool, priority 2011, dated 2020).

How the values were obtained:
[1] = ATP cell viability assay (CellTiter-Glo) cytotoxicity; assay type: cell-based; conditions: human, 70% lopinavir loaded, 24 hours incubation
From the text: (§1) HepG2 (hepatic) and Caco-2 (intestinal) cells were purchased from American Type Tissue Culture (ATCC; USA) and maintained in Dulbecco's modified eagle's medium (DMEM; Sigma; Dorest, Uk) supplemented with 10% fetal bovine serum (FBS; Bio-Whittaker, Berkshire, Uk) for HepG2 and 15% FBS for Caco-2. CEM (lymphocyte) and THP-1 (monocyte) cells were purchased from European Collection of Cell Culture (ECACC; Porton Down, Uk) and grown in RPMI-1640 (Sigma; Dorest, Uk) supplemented with 10% FBS. All cell lines were incubated at 37° C. and 5% CO2 and for adherent cells (HepG2 and Caco-2) were routinely sub-cultured every 4 days when 95% confluent. Suspension cells (CEM and THP-1) were routinely sub-cultured when a density of 1×10^6 cells/ml was achieved. Cell count and viability was determined by Trypan Blue exclusion assay.
(§2) HepG2, Caco-2, THP-1, CEM and A-THP-1 cells were separately seeded at a density of 2.5×10^4/100 μl in their appropriate media into each well of a 96 well plate (Nunclon™, Denmark) and incubated for 24 hours at 37° C. and 5% CO2. Media was then aspirated and replaced with media containing 0.1, 1, 10, 100, 500 or 1000 μM, calculated from molarity of lopinavir (145 samples), of each lopinavir dispersion and incubated for a further 24 hours. The same procedure was followed for each individual excipient (23 samples) with concentrations range of 1 μM to 1M.
Prior to starting viability assays, all reagents were made fresh and in accordance to manufacturer's instructions and allowed to equilibrate to room temperature immediately before use. After 24 hours incubation, 96 well plates were removed from the incubator and the plate and its contents allowed too equilibrate to room temperature for approximately 30 minutes. After 30 minutes, 80 μl of media was aspirated from each individual well and 20 μl CellTiter-Glo® Reagent (Promega, UK) was added to the remaining media and cells. The contents were then mixed for 2 minutes on an orbital shaker to induce cell lysis. The plate was then further incubated at room temperature for 10 minutes to stabilise luminescent signal. Luminescence was then measured using a Tecan Genios plate reader (Tecan; Austria).

[2] = as above; assay type: cell-based; conditions: human, A-THP-1 (PMA-activated THP-1, macrophage like) cells, 70% lopinavir loaded, 24 hours incubation
From the text: as §1, with “assay. […]” for “assay.”
as §2, with “The same procedure was followed for each individual excipient (23 samples) with concentrations range of 1 μM to 1M.” left out

[3] = biological target: recombinant HIV-1 protease (UniProt P04585); experiment: Inhibition of recombinant HIV-1 protease; assay type: biochemical; conditions: 70% loaded; cell-free assay; read-out: IC50 against recombinant HIV protease
Procedure: HIV-1 protease inhibition screening was conducted as per manufacturers' instructions (Roche Diagnostics GmbH; Germany). […] The entire sample (60 μl) was then transferred into microplate modules and incubated for a further 60 minutes at 37° C. The samples were then aspirated and washed ×5 with 250 μl of wash buffer. After the final aspiration, 200 μl of reconstituted anti-digoxigenin-peroxidase (Anti-DIG-POD) polyclonal antibody (200 mU/ml final concentration) was added to all wells and the plate returned to the incubator for a further 60 minutes at 37° C. The samples were aspirated and washed ×5 with wash buffer. Finally, after the final wash buffer was aspirated, 200 μl of ABTS substrate was added to each well and the plate incubated at room temperature for 15 minutes. Absorbance was then measured at 405 nm using FLUOstar Omega microplate reader (BMG Labtech, Uk).

[4] = system: HIVIIIB; experiment: Inhibition of cultured HIV-IIIB in MT4 cells (MTT assay); assay type: cell-based, HIVIIIB in human T-cell line MT4; conditions: Human immunodeficiency virus 1, 120 h, 70% loaded, 5 days, read-out: IC50 (Table 10, activity against cultured HIV virus)
Procedure: HIVIIIB and the human T-cell line, MT4, were supplied by the National Institute for Biological Standards and Control (NIBSC), the Centre for AIDS Reagents (CFAR: Hertfordshire, Uk). MT4 cells were grown and routinely maintained in RPMI-1640 (Sigma; Dorest, Uk) supplemented with 10% fetal bovine serum (FBS; Bio-Whittaker, Berkshire, Uk) at 37° C. and 5% CO2 and sub-cultured every 3 days. Cell counts and viability was determined by Trypan Blue exclusion using a disposable plastic haemocytometer (Labtech International Ltd, UK). HIVIIIB was propagated by passage through MT4 cells in RPMI-1640 and 10% FBS for 12 days and a subsequent multiplicity of infection (MOI) was determined by MTT assay.
MT4 cells were dispensed into 50 ml falcon tubes and centrifuged at 2000 rpm and 4° C. for 5 minutes. The supernantant was aspirated and the resulting pellet resuspended to a cell density of 1×10^5/ml in RPMI 1640 supplemented with 10% FBS and 1 ml of viral isolate (M.O.I 0.001). After further centrifugation for 5 minutes at 2000 rpm, the MT4/HIVIIIB pellet was incubated at 37° C. and 5% CO2 for 2 hours. […]
Following incubation for 5 days of MT4/HIVIIIB with nano formulated LOPINAVIR at 37° C. and 5% CO2. […] Absorbance was read at 570 nm on a plate reader (Tecan Magellan, Austria).

Cc1cccc(C)c1OCC(=O)N[C@@H](Cc1ccccc1)[C@@H](O)C[C@H](Cc1ccccc1)NC(=O)[C@H](C(C)C)N1CCCNC1=O [Aqueous solution, lopinavir]
IC50 at 24 h ([1]; CEM (lymphocyte) cells): 100 µM
IC50 at 24 h ([1]; Caco-2 (intestinal) cells): 52.5 µM
IC50 at 24 h ([1]; HepG2 (hepatic) cells): 35.8 µM
IC50 at 24 h ([1]; THP-1 (monocyte) cells): 28.3 µM
IC50 at 24 h [2]: 84.3 µM
IC50 [3]: 0.032 µM
IC50 [4]: 0.056 µM
